Numbers after ± are expanded uncertainties.
Settings: Liquid, Vibrating tube method

## CCCCOCC [butyl ethyl ether]
283.15 K, 100 kPa
  mass density: 759.63 ± 0.3 kg/m3
283.15 K, 5000 kPa
  mass density: 764.45 ± 0.33 kg/m3
283.15 K, 10000 kPa
  mass density: 768.96 ± 0.36 kg/m3
283.15 K, 15000 kPa
  mass density: 773.2 ± 0.39 kg/m3
283.15 K, 20000 kPa
  mass density: 777.2 ± 0.42 kg/m3
283.15 K, 25000 kPa
  mass density: 781.05 ± 0.46 kg/m3
283.15 K, 30000 kPa
  mass density: 784.72 ± 0.49 kg/m3
283.15 K, 35000 kPa
  mass density: 788.24 ± 0.52 kg/m3
283.15 K, 40000 kPa
  mass density: 791.65 ± 0.56 kg/m3
283.15 K, 45000 kPa
  mass density: 794.97 ± 0.59 kg/m3
283.15 K, 50000 kPa
  mass density: 798.13 ± 0.63 kg/m3
283.15 K, 55000 kPa
  mass density: 801.25 ± 0.66 kg/m3
283.15 K, 60000 kPa
  mass density: 804.23 ± 0.69 kg/m3
283.15 K, 65000 kPa
  mass density: 807.14 ± 0.72 kg/m3
288.15 K, 100 kPa
  mass density: 754.84 ± 0.3 kg/m3
288.15 K, 5000 kPa
  mass density: 759.82 ± 0.33 kg/m3
288.15 K, 10000 kPa
  mass density: 764.48 ± 0.36 kg/m3
288.15 K, 15000 kPa
  mass density: 768.83 ± 0.39 kg/m3
288.15 K, 20000 kPa
  mass density: 772.96 ± 0.43 kg/m3
288.15 K, 25000 kPa
  mass density: 776.9 ± 0.46 kg/m3
288.15 K, 30000 kPa
  mass density: 780.66 ± 0.49 kg/m3
288.15 K, 35000 kPa
  mass density: 784.28 ± 0.53 kg/m3
288.15 K, 40000 kPa
  mass density: 787.77 ± 0.56 kg/m3
288.15 K, 45000 kPa
  mass density: 791.13 ± 0.6 kg/m3
288.15 K, 50000 kPa
  mass density: 794.37 ± 0.63 kg/m3
288.15 K, 55000 kPa
  mass density: 797.51 ± 0.67 kg/m3
288.15 K, 60000 kPa
  mass density: 800.57 ± 0.7 kg/m3
288.15 K, 65000 kPa
  mass density: 803.54 ± 0.73 kg/m3
293.15 K, 100 kPa
  mass density: 750.02 ± 0.3 kg/m3
293.15 K, 5000 kPa
  mass density: 755.18 ± 0.33 kg/m3
293.15 K, 10000 kPa
  mass density: 759.98 ± 0.36 kg/m3
293.15 K, 15000 kPa
  mass density: 764.45 ± 0.4 kg/m3
293.15 K, 20000 kPa
  mass density: 768.69 ± 0.43 kg/m3
293.15 K, 25000 kPa
  mass density: 772.75 ± 0.46 kg/m3
293.15 K, 30000 kPa
  mass density: 776.62 ± 0.5 kg/m3
293.15 K, 35000 kPa
  mass density: 780.33 ± 0.53 kg/m3
293.15 K, 40000 kPa
  mass density: 783.87 ± 0.57 kg/m3
293.15 K, 45000 kPa
  mass density: 787.34 ± 0.61 kg/m3
293.15 K, 50000 kPa
  mass density: 790.66 ± 0.64 kg/m3
293.15 K, 55000 kPa
  mass density: 793.86 ± 0.67 kg/m3
293.15 K, 60000 kPa
  mass density: 796.96 ± 0.71 kg/m3
293.15 K, 65000 kPa
  mass density: 799.99 ± 0.74 kg/m3
298.15 K, 100 kPa
  mass density: 745.17 ± 0.3 kg/m3
298.15 K, 5000 kPa
  mass density: 750.51 ± 0.33 kg/m3
298.15 K, 10000 kPa
  mass density: 755.44 ± 0.36 kg/m3
298.15 K, 15000 kPa
  mass density: 760.05 ± 0.4 kg/m3
298.15 K, 20000 kPa
  mass density: 764.43 ± 0.43 kg/m3
298.15 K, 25000 kPa
  mass density: 768.58 ± 0.47 kg/m3
298.15 K, 30000 kPa
  mass density: 772.55 ± 0.5 kg/m3
298.15 K, 35000 kPa
  mass density: 776.36 ± 0.54 kg/m3
298.15 K, 40000 kPa
  mass density: 780.01 ± 0.58 kg/m3
298.15 K, 45000 kPa
  mass density: 783.52 ± 0.61 kg/m3
298.15 K, 50000 kPa
  mass density: 786.91 ± 0.65 kg/m3
298.15 K, 55000 kPa
  mass density: 790.19 ± 0.68 kg/m3
298.15 K, 60000 kPa
  mass density: 793.36 ± 0.72 kg/m3
298.15 K, 65000 kPa
  mass density: 796.44 ± 0.75 kg/m3
303.15 K, 100 kPa
  mass density: 740.3 ± 0.3 kg/m3
303.15 K, 5000 kPa
  mass density: 745.81 ± 0.33 kg/m3
303.15 K, 10000 kPa
  mass density: 750.9 ± 0.37 kg/m3
303.15 K, 15000 kPa
  mass density: 755.66 ± 0.4 kg/m3
303.15 K, 20000 kPa
  mass density: 760.15 ± 0.44 kg/m3
303.15 K, 25000 kPa
  mass density: 764.45 ± 0.47 kg/m3
303.15 K, 30000 kPa
  mass density: 768.49 ± 0.51 kg/m3
303.15 K, 35000 kPa
  mass density: 772.35 ± 0.55 kg/m3
303.15 K, 40000 kPa
  mass density: 776.1 ± 0.58 kg/m3
303.15 K, 45000 kPa
  mass density: 779.71 ± 0.62 kg/m3
303.15 K, 50000 kPa
  mass density: 783.18 ± 0.66 kg/m3
303.15 K, 55000 kPa
  mass density: 786.51 ± 0.69 kg/m3
303.15 K, 60000 kPa
  mass density: 789.75 ± 0.72 kg/m3
303.15 K, 65000 kPa
  mass density: 792.89 ± 0.76 kg/m3
308.15 K, 100 kPa
  mass density: 735.39 ± 0.3 kg/m3
308.15 K, 5000 kPa
  mass density: 741.09 ± 0.33 kg/m3
308.15 K, 10000 kPa
  mass density: 746.35 ± 0.37 kg/m3
308.15 K, 15000 kPa
  mass density: 751.24 ± 0.4 kg/m3
308.15 K, 20000 kPa
  mass density: 755.87 ± 0.44 kg/m3
308.15 K, 25000 kPa
  mass density: 760.26 ± 0.47 kg/m3
308.15 K, 30000 kPa
  mass density: 764.45 ± 0.51 kg/m3
308.15 K, 35000 kPa
  mass density: 768.44 ± 0.55 kg/m3
308.15 K, 40000 kPa
  mass density: 772.26 ± 0.59 kg/m3
308.15 K, 45000 kPa
  mass density: 775.95 ± 0.63 kg/m3
308.15 K, 50000 kPa
  mass density: 779.48 ± 0.66 kg/m3
308.15 K, 55000 kPa
  mass density: 782.89 ± 0.7 kg/m3
308.15 K, 60000 kPa
  mass density: 786.19 ± 0.73 kg/m3
308.15 K, 65000 kPa
  mass density: 789.36 ± 0.77 kg/m3
313.15 K, 100 kPa
  mass density: 730.45 ± 0.3 kg/m3
313.15 K, 5000 kPa
  mass density: 736.34 ± 0.33 kg/m3
313.15 K, 10000 kPa
  mass density: 741.76 ± 0.37 kg/m3
313.15 K, 15000 kPa
  mass density: 746.82 ± 0.41 kg/m3
313.15 K, 20000 kPa
  mass density: 751.59 ± 0.44 kg/m3
313.15 K, 25000 kPa
  mass density: 756.09 ± 0.48 kg/m3
313.15 K, 30000 kPa
  mass density: 760.38 ± 0.52 kg/m3
313.15 K, 35000 kPa
  mass density: 764.5 ± 0.56 kg/m3
313.15 K, 40000 kPa
  mass density: 768.36 ± 0.6 kg/m3
313.15 K, 45000 kPa
  mass density: 772.14 ± 0.63 kg/m3
313.15 K, 50000 kPa
  mass density: 775.74 ± 0.67 kg/m3
313.15 K, 55000 kPa
  mass density: 779.22 ± 0.71 kg/m3
313.15 K, 60000 kPa
  mass density: 782.57 ± 0.74 kg/m3
313.15 K, 65000 kPa
  mass density: 785.85 ± 0.78 kg/m3
318.15 K, 100 kPa
  mass density: 725.44 ± 0.3 kg/m3
318.15 K, 5000 kPa
  mass density: 731.57 ± 0.33 kg/m3
318.15 K, 10000 kPa
  mass density: 737.2 ± 0.37 kg/m3
318.15 K, 15000 kPa
  mass density: 742.41 ± 0.41 kg/m3
318.15 K, 20000 kPa
  mass density: 747.31 ± 0.45 kg/m3
318.15 K, 25000 kPa
  mass density: 751.96 ± 0.48 kg/m3
318.15 K, 30000 kPa
  mass density: 756.38 ± 0.52 kg/m3
318.15 K, 35000 kPa
  mass density: 760.54 ± 0.56 kg/m3
318.15 K, 40000 kPa
  mass density: 764.55 ± 0.6 kg/m3
318.15 K, 45000 kPa
  mass density: 768.4 ± 0.64 kg/m3
318.15 K, 50000 kPa
  mass density: 772.07 ± 0.68 kg/m3
318.15 K, 55000 kPa
  mass density: 775.65 ± 0.71 kg/m3
318.15 K, 60000 kPa
  mass density: 779.08 ± 0.75 kg/m3
318.15 K, 65000 kPa
  mass density: 782.35 ± 0.78 kg/m3
323.15 K, 100 kPa
  mass density: 720.43 ± 0.3 kg/m3
323.15 K, 5000 kPa
  mass density: 726.77 ± 0.34 kg/m3
323.15 K, 10000 kPa
  mass density: 732.59 ± 0.37 kg/m3
323.15 K, 15000 kPa
  mass density: 738 ± 0.41 kg/m3
323.15 K, 20000 kPa
  mass density: 743.03 ± 0.45 kg/m3
323.15 K, 25000 kPa
  mass density: 747.78 ± 0.48 kg/m3
323.15 K, 30000 kPa
  mass density: 752.29 ± 0.53 kg/m3
323.15 K, 35000 kPa
  mass density: 756.59 ± 0.57 kg/m3
323.15 K, 40000 kPa
  mass density: 760.68 ± 0.61 kg/m3
323.15 K, 45000 kPa
  mass density: 764.61 ± 0.65 kg/m3
323.15 K, 50000 kPa
  mass density: 768.4 ± 0.69 kg/m3
323.15 K, 55000 kPa
  mass density: 771.97 ± 0.72 kg/m3
323.15 K, 60000 kPa
  mass density: 775.47 ± 0.76 kg/m3
323.15 K, 65000 kPa
  mass density: 778.87 ± 0.79 kg/m3
328.15 K, 100 kPa
  mass density: 715.37 ± 0.3 kg/m3
328.15 K, 5000 kPa
  mass density: 721.95 ± 0.34 kg/m3
328.15 K, 10000 kPa
  mass density: 727.94 ± 0.37 kg/m3
328.15 K, 15000 kPa
  mass density: 733.52 ± 0.41 kg/m3
328.15 K, 20000 kPa
  mass density: 738.72 ± 0.45 kg/m3
328.15 K, 25000 kPa
  mass density: 743.64 ± 0.49 kg/m3
328.15 K, 30000 kPa
  mass density: 748.27 ± 0.53 kg/m3
328.15 K, 35000 kPa
  mass density: 752.68 ± 0.57 kg/m3
328.15 K, 40000 kPa
  mass density: 756.87 ± 0.62 kg/m3
328.15 K, 45000 kPa
  mass density: 760.88 ± 0.65 kg/m3
328.15 K, 50000 kPa
  mass density: 764.73 ± 0.69 kg/m3
328.15 K, 55000 kPa
  mass density: 768.42 ± 0.73 kg/m3
328.15 K, 60000 kPa
  mass density: 771.99 ± 0.77 kg/m3
328.15 K, 65000 kPa
  mass density: 775.41 ± 0.8 kg/m3
333.15 K, 100 kPa
  mass density: 710.26 ± 0.3 kg/m3
333.15 K, 5000 kPa
  mass density: 717.05 ± 0.34 kg/m3
333.15 K, 10000 kPa
  mass density: 723.28 ± 0.38 kg/m3
333.15 K, 15000 kPa
  mass density: 729.03 ± 0.42 kg/m3
333.15 K, 20000 kPa
  mass density: 734.4 ± 0.45 kg/m3
333.15 K, 25000 kPa
  mass density: 739.43 ± 0.49 kg/m3
333.15 K, 30000 kPa
  mass density: 744.2 ± 0.54 kg/m3
333.15 K, 35000 kPa
  mass density: 748.71 ± 0.58 kg/m3
333.15 K, 40000 kPa
  mass density: 753.02 ± 0.62 kg/m3
333.15 K, 45000 kPa
  mass density: 757.13 ± 0.66 kg/m3
333.15 K, 50000 kPa
  mass density: 761.02 ± 0.7 kg/m3
333.15 K, 55000 kPa
  mass density: 764.8 ± 0.74 kg/m3
333.15 K, 60000 kPa
  mass density: 768.41 ± 0.78 kg/m3
333.15 K, 65000 kPa
  mass density: 771.92 ± 0.81 kg/m3
